In this test the target is T1, CDK12 complexed with Cyclin K (Homo sapiens, UniProt Q9NYV4).
T1 construct: GST (N)
T1 sequence (Q9NYV4 whole entry): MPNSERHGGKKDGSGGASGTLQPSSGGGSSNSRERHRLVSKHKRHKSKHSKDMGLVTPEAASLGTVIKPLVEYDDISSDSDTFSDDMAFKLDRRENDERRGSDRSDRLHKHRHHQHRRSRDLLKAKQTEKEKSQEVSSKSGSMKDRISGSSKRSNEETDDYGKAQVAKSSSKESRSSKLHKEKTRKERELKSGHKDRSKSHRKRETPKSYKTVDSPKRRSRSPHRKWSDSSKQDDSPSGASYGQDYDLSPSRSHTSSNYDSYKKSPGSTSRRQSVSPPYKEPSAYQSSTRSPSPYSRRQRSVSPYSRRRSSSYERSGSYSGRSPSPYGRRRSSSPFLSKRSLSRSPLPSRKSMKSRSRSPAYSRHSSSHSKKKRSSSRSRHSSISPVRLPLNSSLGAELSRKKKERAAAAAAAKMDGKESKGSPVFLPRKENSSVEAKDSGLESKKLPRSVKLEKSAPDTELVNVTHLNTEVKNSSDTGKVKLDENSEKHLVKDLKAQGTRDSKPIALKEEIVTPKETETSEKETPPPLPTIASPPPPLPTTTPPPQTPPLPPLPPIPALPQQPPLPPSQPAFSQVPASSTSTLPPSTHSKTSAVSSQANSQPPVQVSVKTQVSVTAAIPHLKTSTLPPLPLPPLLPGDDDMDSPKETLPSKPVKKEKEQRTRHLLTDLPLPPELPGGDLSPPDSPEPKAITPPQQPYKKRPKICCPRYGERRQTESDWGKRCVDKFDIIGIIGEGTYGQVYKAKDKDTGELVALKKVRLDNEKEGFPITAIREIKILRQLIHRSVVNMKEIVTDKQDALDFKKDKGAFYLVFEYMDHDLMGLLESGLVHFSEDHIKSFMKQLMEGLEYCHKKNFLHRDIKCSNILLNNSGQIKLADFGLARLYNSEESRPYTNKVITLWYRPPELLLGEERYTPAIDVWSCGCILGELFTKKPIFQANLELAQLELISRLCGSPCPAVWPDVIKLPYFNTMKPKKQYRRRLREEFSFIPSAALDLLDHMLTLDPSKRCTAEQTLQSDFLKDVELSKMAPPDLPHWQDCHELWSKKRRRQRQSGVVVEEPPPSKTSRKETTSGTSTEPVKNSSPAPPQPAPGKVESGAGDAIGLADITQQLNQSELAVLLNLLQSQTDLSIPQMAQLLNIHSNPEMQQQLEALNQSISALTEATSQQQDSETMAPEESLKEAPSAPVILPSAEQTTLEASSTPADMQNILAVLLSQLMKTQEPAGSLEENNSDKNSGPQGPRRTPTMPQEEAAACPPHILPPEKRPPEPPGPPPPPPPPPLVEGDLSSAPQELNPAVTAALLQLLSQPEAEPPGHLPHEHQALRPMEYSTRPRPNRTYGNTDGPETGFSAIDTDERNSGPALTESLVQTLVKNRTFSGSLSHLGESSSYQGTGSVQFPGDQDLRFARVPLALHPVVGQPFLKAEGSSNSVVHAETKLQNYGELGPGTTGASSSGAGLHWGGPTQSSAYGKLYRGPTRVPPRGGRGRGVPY
T1 sequence (O75909 whole entry partner): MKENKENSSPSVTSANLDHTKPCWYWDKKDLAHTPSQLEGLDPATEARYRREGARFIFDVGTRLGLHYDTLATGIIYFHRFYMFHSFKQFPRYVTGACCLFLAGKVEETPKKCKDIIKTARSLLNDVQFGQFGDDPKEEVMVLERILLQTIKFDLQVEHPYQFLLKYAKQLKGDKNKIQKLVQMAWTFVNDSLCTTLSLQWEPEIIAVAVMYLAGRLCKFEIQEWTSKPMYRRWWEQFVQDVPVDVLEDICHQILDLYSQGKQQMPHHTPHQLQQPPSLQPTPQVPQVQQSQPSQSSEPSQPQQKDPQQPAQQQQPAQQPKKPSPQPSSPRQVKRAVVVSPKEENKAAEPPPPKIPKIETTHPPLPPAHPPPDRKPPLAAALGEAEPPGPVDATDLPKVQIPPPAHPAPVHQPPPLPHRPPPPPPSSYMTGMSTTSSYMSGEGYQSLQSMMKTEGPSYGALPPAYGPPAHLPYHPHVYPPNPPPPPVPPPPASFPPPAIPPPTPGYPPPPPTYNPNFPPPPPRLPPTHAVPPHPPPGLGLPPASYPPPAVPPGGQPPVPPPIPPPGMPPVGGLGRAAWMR
Kind of test: Alternative CDK Enzymatic Assays (HTRF, pre-incubation with compounds and 1 mM ATP), Example A2. The class given is biochemical. To be noted: enzyme pre-incubated with compounds and 1 mM ATP for 60 minutes; reaction 120 minutes at 25° C. The method in brief: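 GST-tagged human CDK12 co-expressed with full-length Cyclin K (baculovirus), pre-incubated 60 min with compounds and 1 mM ATP; reaction started with 1 mM ATP and 50 nM ULight-4E-BP1 peptide, 120 min at 25 °C, pH 7.5 HEPES. EDTA-stopped, Eu-anti-phospho-4E-BP1 HTRF (665/620 nm); IC50 from 3- or 4-parameter fit vs DMSO/no-enzyme controls.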
As to `C=CC(=O)Nc1cc2nc(N3C[C@H](F)C[C@@H](Nc4ncc(C#N)c(CC)n4)C3)n(C)c2cc1C` [Example 161, N-(2-((3R,5R)-3-((5-Cyano-4-ethylpyrimidin-2-yl)amino)-5-fluoropiperidin-1-yl)-1,6-dimethyl-1H-benzo[d]imidazol-5-yl)acrylamide], the IC50 was below 50 nM.
In the case of `C=CC(=O)Nc1cc2nc(N3C[C@H](F)C[C@@H](Nc4ncc(C#N)s4)C3)n(C)c2cc1C` [Example 162, N-(2-((3R,5R)-3-((5-Cyanothiazol-2-yl)amino)-5-fluoropiperidin-1-yl)-1,6-dimethyl-1H-benzo[d]imidazol-5-yl)acrylamide] it was 50 to 500 nM.
Then `C=CC(=O)Nc1cc2nc(N3C[C@H](F)C[C@@H](Nc4ccc(C#N)cn4)C3)n(C)c2cc1C` [Example 163, N-(2-((3R,5R)-3-((5-Cyanopyridin-2-yl)amino)-5-fluoropiperidin-1-yl)-1,6-dimethyl-1H-benzo[d]imidazol-5-yl)acrylamide], with 50 to 500 nM.
Turning to `C=CC(=O)Nc1cc2nc(N3C[C@H](F)C[C@@H](Nc4ncc(C#N)c(C)n4)C3)n(C)c2cc1C` [Example 164, N-(2-((3R,5R)-3-((5-Cyano-4-methylpyrimidin-2-yl)amino)-5-fluoropiperidin-1-yl)-1,6-dimethyl-1H-benzo[d]imidazol-5-yl)acrylamide], the IC50 was 50 to 500 nM.
In the case of `C=CC(=O)N(c1ccc2c(c1)nc(N1CCC[C@@H](Nc3ncc(C(F)(F)F)cn3)C1)n2C)C1CCOC1` (stereo partly drawn) [Example 165, N-(1-Methyl-2-((R)-3-((5-(trifluoromethyl)pyrimidin-2-yl)amino)piperidin-1-yl)-1H-benzo[d]imidazol-5-yl)-N-(tetrahydrofuran-3-yl)acrylamide] it was below 50 nM.
For `C=CC(=O)Nc1cc2nc(N3CCC[C@@H](Nc4ncc(C(F)(F)F)cn4)C3)n(C)c2cc1OC` [Example 166, (R)—N-(6-Methoxy-1-methyl-2-(3-((5-(trifluoromethyl)pyrimidin-2-yl)amino)piperidin-1-yl)-1H-benzo[d]imidazol-5-yl)acrylamide], the 50% inhibitory concentration (IC50) was below 50 nM.
As to “N-(2-((3R,5R)-3-Hydroxy-5-((5-(trifluoromethyl)pyrimidin-2-yl)amino)piperi-dine-1-yl)-1,6-dimethyl-1H-benzo[d]imidazol-5-yl)acrylamide [Example 94]”, the IC50 fell in the range of 50 to 500 nM.

One may read the IC50 as the concentration that gives 50% inhibition.

For the origin of these results see patent US12643881B2, “Bicyclic amine CDK12 inhibitors” (Incyte Corporation, priority 2021, dated 2026).
